In the supplement of paper PMC6045584:
± gives the standard deviation of the averaged measurements.

How the values were obtained:
MK-1775 = compound: C=CCn1c(=O)c2cnc(Nc3ccc(N4CCN(C)CC4)cc3)nc2n1-c1cccc(C(C)(C)O)n1 [MK-1775]; assay: surviving fraction relative to DMSO-only wells; higher = less growth inhibition; settings: exposure time: 5 days
Method in brief: (§1)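 Log-phase tumour cells were seeded at 250–500 per well in 384-well plates and, from 24 hours after seeding, exposed continuously for five days to inhibitors at 0.5, 1, 5, 10, 50, 100, 500 and 1000 nM. Surviving fraction is CellTiter-Glo luminescence normalised to the median of DMSO-only wells. Luminescence was measured after 10 minutes at room temperature, and only lines screened three times with replicate Pearson r >0.7 and median Z' >0.3 were kept.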

AFIMOXIFENE = compound: CC/C(=C(\c1ccc(O)cc1)c1ccc(OCCN(C)C)cc1)c1ccccc1 [AFIMOXIFENE]; assay: as above; settings: exposure time: 5 days
Method in brief: as §1

Test System | surviving fraction (MK-1775; 0.5 nM) | surviving fraction (MK-1775; 1 nM) | surviving fraction (MK-1775; 5 nM) | surviving fraction (MK-1775; 10 nM) | surviving fraction (MK-1775; 50 nM) | surviving fraction (MK-1775; 100 nM) | surviving fraction (MK-1775; 500 nM) | surviving fraction (MK-1775; 1000 nM) | surviving fraction (AFIMOXIFENE; 0.5 nM) | surviving fraction (AFIMOXIFENE; 1 nM) | surviving fraction (AFIMOXIFENE; 5 nM) | surviving fraction (AFIMOXIFENE; 10 nM) | surviving fraction (AFIMOXIFENE; 50 nM) | surviving fraction (AFIMOXIFENE; 100 nM) | surviving fraction (AFIMOXIFENE; 500 nM) | surviving fraction (AFIMOXIFENE; 1000 nM)
HS57T BREAST | 0.969 ± 0.04 | 1.04 ± 0.017 | 1.06 ± 0.06 | 0.963 ± 0.029 | 0.597 ± 0.018 | 0.336 ± 0.041 | 0.134 ± 0.0042 | 0.098 ± 0.011 | 1.04 ± 0.086 | 1.05 ± 0.088 | 1.12 ± 0.062 | 1.156 ± 0.011 | 1.12 ± 0.071 | 1.19 ± 0.044 | 1.09 ± 0.038 | 1.08 ± 0.057
G292 BONE | 0.974 ± 0.034 | 0.946 ± 0.011 | 0.997 ± 0.018 | 1.03 ± 0.02 | 0.961 ± 0.032 | 0.821 ± 0.021 | 0.289 ± 0.014 | 0.216 ± 0.0088 | 1.02 ± 0.016 | 1.01 ± 0.011 | 0.98 ± 0.033 | 1.02 ± 0.013 | 0.9545 ± 0.0072 | 1.015 ± 0.0096 | 0.903 ± 0.036 | 0.931 ± 0.048
CCK81 LARGE INTESTINE |  |  |  |  |  |  |  |  | 0.822 ± 0.1 | 0.889 ± 0.095 | 0.866 ± 0.083 | 0.822 ± 0.09 | 0.987 ± 0.24 | 0.749 ± 0.051 | 0.932 ± 0.04 | 0.82 ± 0.027
HMLE3 BREAST | 0.955 ± 0.013 | 0.985 ± 0.066 | 1.04 ± 0.071 | 0.999 ± 0.02 | 0.992 ± 0.065 | 0.888 ± 0.061 | 0.448 ± 0.058 | 0.168 ± 0.026 | 1.06 ± 0.032 | 1.11 ± 0.062 | 1.2 ± 0.014 | 1.06 ± 0.05 | 1.12 ± 0.06 | 1.2 ± 0.12 | 1.09 ± 0.1 | 1.13 ± 0.1
HMT3552 BREAST | 1.05 | 1.02 | 0.977 | 1.01 | 0.542 | 0.142 | 0.069 | 0.072 | 1.05 ± 0.062 | 1.02 ± 0.053 |  | 1 ± 0.042 | 1.15 ± 0.07 | 1.18 ± 0.061 | 1.18 ± 0.034 | 1 ± 0.076
HCC70 BREAST | 1.03 ± 0.065 | 1.02 ± 0.067 | 1.09 ± 0.033 | 1 ± 0.11 | 0.815 ± 0.062 | 0.281 ± 0.021 | 0.073 ± 0.0076 | 0.0593 ± 0.012 | 1.05 ± 0.079 | 1.1 ± 0.027 | 1.08 ± 0.074 | 1.06 ± 0.03 | 1.19 ± 0.091 | 1.18 ± 0.062 | 1.04 ± 0.076 | 1.03 ± 0.071
HS578T BREAST | 0.828 ± 0.085 | 0.84 ± 0.11 | 0.872 ± 0.087 | 0.782 ± 0.1 | 0.559 ± 0.091 | 0.354 ± 0.035 | 0.204 ± 0.0082 | 0.128 ± 0.0087 | 1.11 ± 0.14 | 0.963 ± 0.32 | 1.15 ± 0.17 | 1.01 ± 0.1 | 1.07 ± 0.062 | 1.24 ± 0.11 | 1.19 ± 0.19 | 1.21 ± 0.15
HCC38 BREAST | 1.33 ± 0.27 | 1.23 ± 0.048 | 1.33 ± 0.15 | 1.16 ± 0.072 | 0.773 ± 0.24 | 0.491 ± 0.065 | 0.0837 ± 0.006 | 0.069 ± 0.013 | 1.19 ± 0.1 | 1.1 ± 0.23 | 1.19 ± 0.19 | 1.2 ± 0.23 |  | 1.13 ± 0.18 | 0.99 ± 0.24 | 0.952 ± 0.08
